Test results taken from patent US20220160751A1, “METHODS OF TREATMENT OF DISEASES AND DISORDERS ASSOCIATED WITH INCREASED TET LEVEL, INCREASED H19 LEVEL, INCREASED LEVEL OF TGF SIGNALING, OR ANY COMBINATION THEREOF” (YALE UNIVERSITY, priority 2019, published 2022).

How the values were obtained:
[1] = test system: LX-2 human hepatic stellate cells; experiment: qPCR and immunoblotting of gene expression in LX-2 cells; assay type: cell-based
Procedure: LX-2 human hepatic stellate cells (Yale Liver Center) were maintained in DMEM (Gibco, 11965-092) supplemented with 10% heat-inactivated fetal bovine serum (Gibco, 26140-079) and 1% PS (penicillin and streptomycin) at 37° C. in 5% humidified CO2 tissue culture incubator. Generally, cells were plated and transfected in a 24-well plate scale. For transfection with siRNA, let-7, or iLet7, 10 pmol of siTET3 (or siCon), let-7 (or miCon), or iLet7 (iCon) were mixed with 25 μl of OPTI-MEM (Gibco, 31985-070) by gentle pipetting. In parallel, 1 μl of Lipofectamine 3000 (ThermoFisher Scientific, L3000015) was mixed with 25 μl of OPTI-MEM. Then, the contents from the two tubes were mixed by gentle pipetting. After incubation for 5 min at RT, the resulting 50 μl solution was used to resuspend cell pellet (5×10^4 cells). After incubation at RT for 10 min, 450 μl of growth medium was added and the cell suspension was transferred into one well of a 24-well plate. For transfection with TET3-expression plasmid pTET3 (pcDNA-Flag-Tet3, Addgene plasmid #60940, (30)) or control vector, 5×10^4 cells per well were seeded in a 24-well plate the night before transfection. The next day, 0.75 μg of pTET3 (or Vec) were mixed with 1 μl of P3000 in 25 μl of OPTI-MEM by gentle pipetting. In parallel, 0.5 μl of Lipofectamine 3000 were mixed with 25 μl of OPTI-MEM. The contents from the two tubes were combined by gentle pipetting and incubated for 5 min at RT. The resulting 50 μl of transfection solution was added to each well of cells seeded in a 24-well plate the night before and from which the growth medium had been removed. After 6 h of incubation in a tissue culture incubator, 500 μl of growth medium were added to each well of cells. For TGF-β1 (Sigma, USA) treatment experiments, transfected cells were incubated in 500 μl of serum-free DMEM containing 5 ng/mL TGF-β1 (diluted with HCl) or HCl (as control) for 24 h or 48 h as indicated.
Total RNA was extracted from cultured cells or liver tissue samples using PureLink RNA Mini Kit (Ambion, 12183018A). 0.8 μg of total RNA was reverse transcribed to cDNA in a reaction volume of 10 μl using PrimeScript RT Reagent Kit (TAKARA, RR037A). Quantitative real-time PCR reactions were carried out using iQSYBRGreen (Bio-Rad) in a Bio-Rad iCycler. Gene expression levels were normalized against housekeeping genes HPRT1 and RPLP0.
For liver tissue samples, 5-10 mg of tissues were homogenized by sonication (Qsonica, Model Q125) in 150 μl of 2×SDS-sample buffer. Samples were immediately heated at 100° C. for 3 min with occasional vertexing. Then, 100 μl of 2×SDS-sample buffer was added to each sample and the 250 μl of tissue lysate were further homogenized by sonication and heated again at 100° C. for 3-5 min with vertexing once every 15 sec. Samples (further diluted at 1:1 with 2×SDS-sample buffer before loading) were loaded 5-10 μl per well onto a 4-15% gradient SDS gel, followed by Western blot analysis. Image J was used to quantify the protein bands.

[2] = test system: MED12, TGFBR2 and TSP1 promoters; experiment: ChIP-qPCR, methylation profiling and QMSP in leiomyoma cells; assay type: cell-based, human; details: vs siCon
Procedure: gDNA was extracted from primary leiomyoma cells from one well of 24-well plates using Quick-gDNA MicroPrep (Zymo Research Corporation, Irvine, Calif.; D3021) according to the manufacturer's instructions. For bisulfite treatment, 200 ng of gDNA was used for each column using EZ DNA Methylation-Gold Kit (Zymo, D5006). 100 μl of elution buffer was used to elute gDNA from each column. Real-time quantitative PCR was performed in a 15 μl reaction containing 5 μl of the eluted gDNA using iQSYBRGreen (Bio-Rad, Hercules, Calif.; 1708880) in a Bio-Rad iCycler. Two sets of PCR primers were designed: one for unmethylated and one for methylated DNA sequences. The PCR primers for methylated DNA were used at a final concentration of 0.6 μM in each PCR reaction. PCR was performed by initial denaturation at 95° C. for 5 min, followed by 40 cycles of 30 sec at 95° C., 30 sec at 60° C., and 30 sec at 72° C. Specificity was verified by melting curve analysis and agarose gel electrophoresis. The threshold cycle (Ct) values of each sample were used in the post-PCR data analysis. The relative levels of methylated versus unmethylated DNA sequences are presented.
These experiments were performed as previously described (Zhou J et al., 2015, Nat Commun 6:10221) with minor modifications. Briefly, experiments were performed in a 10-cm plate scale using the Pierce Agarose ChIP Kit (Thermo Scientific, 26156) according to the manufacturer's instructions with minor modifications. Agarose beads were used to pre-bind overnight with antibodies against TET3 (Millipore Sigma, ABE290), H3K4me3 (Cell signaling, C42D8) and H3K27me3 (Cell signaling, C36B11). Preimmune IgG was used as a negative control. Cells were cross-linked with 1% formaldehyde at room temperature for 10 min, and the reaction was stopped by 1× glycine. ChIPs were carried out overnight at 4° C. Primers for the specific promoter regions of MED12, TGFBR2, and TSP1 (FIG. 16A) were used to amplify input and ChIP-purified DNA. The relative enrichments of the indicated DNA regions were calculated using the Percent Input Method according to the manufacturer's instructions and were normalized to % input. Data are presented after normalization against background IgG signals.

For “siTET3: TET3-specific siRNA (human), Ambion 4392420/s47239 (sense CAGCAACUCCUAGAACUGATT; antisense UCAGUUCUAGGAGUUGCUGGA; chemistry not given here)”, the “expression of TGFB1, TSP1 and TGFBR2 (mRNA and protein)” value ([1]; 48 h post-transfection, vs siCon or Vec) was “decreased expression of TGFB1, TSP1 and TGFBR2”, the “TGF-β1-induced TGF-β signaling and profibrotic gene expression” value ([1]; TET3 siRNA 24 h, then TGF-β1 5 ng/mL 24 h) was “the effects were no longer observed” and the “binding of TET3 to MED12, TGFBR2 and TSP1 promoters (ChIP-qPCR)” value ([2]; UtLM cells, 48 h) was “significantly reduced”. The “H3K4me3 association with promoters” value ([2]; UtLM cells) was “significantly decreased H3K4me3”, the “H3K27me3 association with promoters” value ([2]; UtLM cells) was “increased H3K27me3” and the “decrease of the ratios of H3K4me3/H3K27me3” value ([2]; UtLM cells) was 5-8 fold. For the same substance, the “methylation of CpGs within the CTRRs of MED12, TGFBR2 and TSP1 promoters” value ([2]; ht-UtLM genome-wide profiling, confirmed in UtLM by QMSP, 48 h) was “increased methylation of the CpGs within the CTRRs”.
